# Experimental data published in patent US5700635A, “HIV-1 gag cytotoxic T-lymphocyte epitope and method of use” (United Biomedical, Inc., priority 1989, dated 1997).
# Tests used:
# [1] = tested on: cytotoxic T lymphocytes specific for gag and HLA B8
# [2] = tested on: cytotoxic T lymphocytes
smiles,measurement,setting,value
"CC[C@H](C)[C@H](NC(=O)[C@H](CCC(=O)O)NC(=O)CNC(=O)[C@@H](NC(=O)[C@@H]1CCCN1C(=O)[C@@H](NC(=O)[C@@H]1CCCN1C(=O)[C@@H]1CCCN1C(=O)[C@@H](N)CC(N)=O)[C@@H](C)CC)C(C)C)C(=O)N[C@@H](Cc1ccc(O)cc1)C(=O)N[C@@H](CCCCN)C(=O)N[C@@H](CCCNC(=N)N)C(=O)N[C@@H](Cc1c[nH]c2ccccc12)C(=O)N[C@H](C(=O)N[C@H](C(=O)N[C@@H](CS)C(=O)O)[C@@H](C)CC)[C@@H](C)CC [p24-13, NH2 -asparagine-proline-proline-isoleucine-proline-valine-glycine-glutamate-isoleucine-tyrosine-lysine-arginine-tryptophan-isoleucine-iso leucine-cysteine-COOH]",recognition of peptide by cytotoxic T lymphocytes (lysis of target cells),[1],recognised by cytotoxic T lymphocytes specific for gag and HLA B8
same,specific interaction with HLA class I molecule,[1],interacts specifically with HLA B8
same,stimulation of cytotoxic T lymphocytes to grow in vitro,[2],have been used to stimulate cytotoxic T lymphocytes to grow in vitro
